How the values were obtained:
[1] = system: TOP-FLASH TCF4-responsive luciferase reporter; assay: TOP-FLASH TCF4 luciferase reporter in colon cancer cell lines; assay type: cell-based, human
Text: (B) TOP-FLASH activity in KRAS-independent and KRAS-dependent cell lines following TAK1 inhibition with indicated concentrations (μM). Data are represented as means of triplicate experiments±SEM.
Since Wnt pathway enrichment was found in KRAS-dependent cells (FIG. 8C), the TAK1 dependency signature was overlapped with a dataset of binding sites for the Wnt-regulated transcription factor TCF4, derived from ChIP-on-Chip analyses (Hatzis et al., 2008). Of the 32 TAK1 dependency genes, 18 contained proximal TCF4 binding sites. A number of these genes, such as BAMBI, PROX1 and NAV2 (HELAD1) have been previously linked to colon tumorigenesis in the context of deregulated Wnt signaling (Lin et al., 2008; Petrova et al., 2008; Sekiya et al., 2004). Basal Wnt signaling activity was measured by TOP-FLASH TCF4-responsive luciferase assays. Cells were plated in 12-well tissue culture plates at a density of 5×10^4 cells/ml and 1 ml per well. Cells were then co-transfected with either 0.5 μg FOP-FLASH or TOP-FLASH plasmids plus 50 ng of pRL-TK (expressing Renilla luciferase). […]
To explore the role of KRAS and TAK1 in modulating Wnt signaling, the effect of KRAS depletion on β-catenin/TCF transcription was first assessed in a panel of KRAS mutant cell lines using the TOP-FLASH reporter (FIGS. 5A and 11A). […]

[2] = Toxicity in treated xenograft mice; assay type: in vivo, NOD/SCID mice; conditions: 15 mg/kg daily intraperitoneal
Experimental: (§1) To validate the efficacy of 5Z-7-oxozeaenol in vivo, subcutaneous xenografted tumors were generated in NOD/SCID mice using four representative KRAS mutant cell lines: HCT8 and SW837 (KRAS-independent), and SK-CO-1 and SW620 (KRAS-dependent). Human colorectal cancer tumor cells were trypsinized and resuspended as single cell suspensions at 3×10^7 cells per ml in PBS. 100 μL (3×10^6 cells total) of this suspension were injected into opposite left and right flanks of NOD/SCID mice. All mice were housed in a pathogen-free environment. Tumor size was monitored daily and once tumor volume had reached approximately 200 mm^3, treatment with 5Z-7-oxozeaenol was initiated (7 to 14 days post-implantation). Mice were injected daily with 15 mg/kg 5Z-7-oxozeaenol. The drug was resuspended as a 25 mg/ml stock in DMSO. This was further diluted 10-fold in Arachis Oil (Sigma Inc.) to yield a 2.5 mg/ml stock in 10% DMSO. Approximately 120 μl of this stock was delivered to 20 g mice intraperitoneally. Alternatively, 10% DMSO in Arachis Oil was delivered as a vehicle control.
Palpable tumors were evident two weeks post-implantation, at which time mice were treated with either daily intraperitoneal 15 mg/kg of 5Z-7-oxozeaenol or vehicle alone (Rawlins et al., 1999).

[3] = system: TOP-FLASH reporter in YAPC cells; assay: TOP-FLASH reporter in YAPC PDAC cells; assay type: cell-based; conditions: YAPC cells, simultaneous treatment with BIO
Text: (E) TOP-FLASH reporter activity in KRAS mutant PDAC cell lines following inhibition of GSK-3 kinase with increasing concentrations of the small molecule inhibitor BIO. PANC-1 are KRAS-independent cells and YAPC are KRAS-dependent cells. Luminescence counts (photons/sec) are plotted on the y-axis. Data are representative of three independent experiments+/−SEM.
(F) TOP-FLASH reporter dose-response relationships in PANC-1 and YAPC cells following combined treatment with GSK-3 and TAK1 inhibitors (BIO and 5Z-7-Oxozeaenok respectively). Luminescence counts (photons/sec) are plotted on the y-axis. Data are represented as the means of triplicates+/−SEM.
To further test the role of Wnt signaling in this context, experiments were performed using two KRAS mutant pancreatic cancer (PDAC) cell lines, PANC-1 and YAPC, which are APC wild-type. PANC-1 cells are KRAS-independent, whereas YAPC cells are KRAS-dependent, a distinction that has been linked to increased KRAS signaling in YAPC cells (Singh et al., 2009). […] In contrast, PANC-1 cells undergo stronger induction of TOP-FLASH activity with combined GSK-3 and TAK1 inhibition (FIG. 11F, […]). […] Finally, a constitutively-activated mutant of β-catenin (CTNNB1-CA) containing S33Y and S45A missense mutations was introduced into KRAS-dependent SW620 cells. This mutant caused partial losses in both KRAS and TAK1 dependencies (FIGS. 13A-C). […]

[4] = system: KRAS-independent colon cancer cells; assay: Apoptosis by PARP and caspase-3 cleavage; assay type: cell-based, human; conditions: except at very high doses
Experimental: (B) Effects of TAK1 inhibition on apoptosis and signaling in a representative panel of KRAS-independent and KRAS-dependent cell lines, 24 h after treatment. PARP and caspase-3 cleavage are shown as indicators of apoptosis, and AMPK threonine 172 (T172) phosphorylation is shown as a downstream indicator of TAK1 signaling activity. GAPDH serves as a gel loading control.
Pharmacologic TAK1 inhibition triggered apoptosis in KRAS-dependent colon cancer cells, as measured by PARP and caspase-3 cleavage (FIG. 3B). […] Thus, low concentrations of 5Z-7-oxozeaenol, in the range of 0.625 to 1.25 μM, promote apoptosis selectively in KRAS-dependent colon cancer cells.

[5] = system: SK-CO-1 and SW620 (KRAS-dependent) xenografted tumors; assay: Subcutaneous xenografted tumors, KRAS-dependent; assay type: in vivo, NOD/SCID mice; conditions: 15 mg/kg daily intraperitoneal, 6 days of treatment
Experimental: (C) TAK1 inhibition in mice with xenografted human tumors derived from the HCT8/SW837 (KRAS-independent) and SK-CO-1/SW620 (KRAS-dependent) cell lines. Cells expressing firefly luciferase were injected subcutaneously into the flanks of […]. Tumors are shown as imaged by IVIS detection of luminescence counts (in photons/sec) following 14 days of tumor growth followed by 6 days of treatment with either 15 mg/kg 5z-7-oxozeaenol or vehicle ([…] in arachis oil), IP delivery q.d. Quantitation of tumor volume (mm^3) is plotted on the right. Tumor volume data are represented as the mean of 4 tumors in 2 mice for each group+/−SEM.
as §1, with “The drug was resuspended as a 25 mg/ml stock in DMSO. This was further diluted 10-fold in Arachis Oil (Sigma Inc.) to yield a 2.5 mg/ml stock in 10% DMSO. Approximately 120 μl of this stock was delivered to 20 g mice intraperitoneally. Alternatively, 10% DMSO in Arachis Oil was delivered as a vehicle control.” left out

Q: Which results are given for `COc1cc(O)c2c(c1)/C=C/C[C@H](O)[C@H](O)C(=O)/C=C\C[C@H](C)OC2=O` [5Z-7-oxozeaenol]?
A: IC50 ([1]; KRAS-independent cells, 24 h treatment, read-out: IC50 for effect on TOP-FLASH activity): > 10 µM; TOP-FLASH activity response ([1]; SW837 cells, increased at low doses, reduced at 5 μM): biphasic response; toxicity in treated mice [2]: No overt toxicity; effect on BIO-mediated TOP-FLASH induction [3]: abrogates the BIO-mediated TOP-FLASH induction; caspase-3 or PARP cleavage [4]: little or no; tumor response (imaging, tumor volume) [5]: remarkable regression
